The source of these data is article PMC7307906, “Macrocyclic Modalities Combining Peptide Epitopes and Natural Product Fragments” (Journal of the American Chemical Society, 2020).

One experiment deals with T1, human MC5R (Homo sapiens, UniProt P33032).
T1 construct: expressed in transfected cells; host or cells: HEK293-6E suspension cells, transient expression; membranes
The experiment in a line: Melanocortin receptor radioligand binding (SPA, [125I]-NDP-α-MSH displacement), MC5R. Particulars: competitive binding, [125I]-NDP-α-MSH; mean (± SEM) of at least three independent experiments; read-out: IC50 hMC5R binding.

The target of experiment [1] is T2, human MC3R (Homo sapiens, UniProt P41968).
T2 construct: expressed in transfected cells
Briefly: cAMP assay (LANCE) in T-Rex-293 cells expressing MC3R. Format: cell-based. Particulars: cAMP assay; mean (± SEM) of at least three independent experiments; read-out: EC50 hMC3R cAMP. For orientation: Changes in cAMP serve as a functional read-out for many G protein-coupled receptors.

Experiment [2] has as its target T3, human MC1R (Homo sapiens, UniProt Q01726).
T3 construct: expressed in transfected cells
The experiment in a line: cAMP assay (LANCE) in T-Rex-293 cells expressing MC1R. It counts as cell-based. The note with it: for EC50: cAMP assay, mean (± SEM) of at least three independent experiments, read-out: EC50 hMC1R cAMP; for Emax: T-REx-293, read-out: % Effect hMC1R cAMP.

Experiment [3] deals with T2, human MC3R. The experiment in a line: Melanocortin receptor radioligand binding (SPA, [125I]-NDP-α-MSH displacement), MC3R. Particulars: competitive binding, mean (± SEM) of at least three independent experiments, read-out: IC50 hMC3R binding.
For experiment [4], the target named is T3, human MC1R. The experiment in a line: Melanocortin receptor radioligand binding (SPA, [125I]-NDP-α-MSH displacement), MC1R. The note with it: competitive binding, mean (± SEM) of at least three independent experiments, read-out: IC50 hMC1R binding.
Experiment [5] concerns the target T4, human MC4R (Homo sapiens, UniProt P32245).
T4 construct: expressed in transfected cells
Briefly: cAMP assay (LANCE) in T-Rex-293 cells expressing MC4R. The note with it: cAMP assay; mean (± SEM) of at least three independent experiments; read-out: EC50 hMC4R cAMP. Format: cell-based.

Experiment [6] has as its target T4, human MC4R. The experiment in a line: Melanocortin receptor radioligand binding (SPA, [125I]-NDP-α-MSH displacement), MC4R. The note with it: competitive binding, mean (± SEM) of at least three independent experiments, read-out: IC50 hMC4R binding.

T3 sequence (Q01726 whole entry): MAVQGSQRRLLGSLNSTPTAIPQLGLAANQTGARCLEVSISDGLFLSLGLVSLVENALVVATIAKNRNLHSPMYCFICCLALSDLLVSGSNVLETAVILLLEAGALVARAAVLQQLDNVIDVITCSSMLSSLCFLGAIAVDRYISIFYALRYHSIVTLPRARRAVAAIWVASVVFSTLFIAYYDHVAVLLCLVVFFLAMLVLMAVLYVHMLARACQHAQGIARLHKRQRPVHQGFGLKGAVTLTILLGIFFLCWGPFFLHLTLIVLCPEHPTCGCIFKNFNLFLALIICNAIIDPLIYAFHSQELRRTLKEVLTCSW
T1 sequence (P33032 whole entry): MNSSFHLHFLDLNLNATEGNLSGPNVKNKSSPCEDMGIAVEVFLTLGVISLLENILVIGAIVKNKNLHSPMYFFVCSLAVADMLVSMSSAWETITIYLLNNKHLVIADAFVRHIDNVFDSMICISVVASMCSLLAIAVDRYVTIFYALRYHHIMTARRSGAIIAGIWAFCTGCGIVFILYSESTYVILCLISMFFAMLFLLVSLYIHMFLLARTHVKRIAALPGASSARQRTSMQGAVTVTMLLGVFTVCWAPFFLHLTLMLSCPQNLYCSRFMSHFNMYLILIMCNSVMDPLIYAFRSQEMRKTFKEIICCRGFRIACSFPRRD
T4 sequence (P32245 whole entry): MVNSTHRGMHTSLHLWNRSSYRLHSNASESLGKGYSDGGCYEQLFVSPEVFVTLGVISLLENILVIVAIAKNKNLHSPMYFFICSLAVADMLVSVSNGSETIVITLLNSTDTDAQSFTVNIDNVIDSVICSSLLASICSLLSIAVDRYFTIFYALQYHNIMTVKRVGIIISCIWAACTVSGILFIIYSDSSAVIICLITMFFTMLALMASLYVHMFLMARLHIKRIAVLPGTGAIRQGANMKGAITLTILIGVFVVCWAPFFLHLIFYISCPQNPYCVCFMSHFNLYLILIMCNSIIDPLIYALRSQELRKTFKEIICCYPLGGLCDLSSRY
T2 sequence (P41968 whole entry): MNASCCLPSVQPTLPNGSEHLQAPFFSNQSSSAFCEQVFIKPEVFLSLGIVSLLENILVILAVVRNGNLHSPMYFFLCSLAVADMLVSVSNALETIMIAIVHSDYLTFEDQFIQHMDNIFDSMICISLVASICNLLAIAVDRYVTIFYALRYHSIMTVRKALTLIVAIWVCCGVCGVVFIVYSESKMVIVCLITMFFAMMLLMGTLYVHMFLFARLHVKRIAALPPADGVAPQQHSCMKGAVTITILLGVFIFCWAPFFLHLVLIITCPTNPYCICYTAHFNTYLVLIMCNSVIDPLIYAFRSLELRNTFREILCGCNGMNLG

As for `COc1ccc(N2C(=O)[C@@H]3[C@H](C2=O)[C@H]2N[C@@H]3C(=O)N(C)[C@@H](Cc3ccccc3)C(=O)N[C@@H](CCCNC(=N)N)C(=O)N[C@H](Cc3ccccc3)C(=O)N[C@H](Cc3ccccc3)C(=O)N[C@@H](CC(N)=O)C(=O)N[C@H](C(=O)NCC(N)=O)CCCCNC(=O)c3ccc2cc3)cc1` [K4-minor, [III-FRffNK ]G], the IC50 on human MC5R was 91 ± 3 µM; at human MC3R [3], above 100 µM; at human MC1R [4], above 100 µM; on human MC4R [6] it was above 100 µM. The EC50 on human MC3R [1], on human MC1R [2] and at human MC4R [5] was above 100 µM in each case. Also, at human MC1R [2] (% effect at 100 µM, compounds not reaching an upper plateau (§)), the “% Effect hMC1R cAMP at 100 µM” value came out at 23%.

On to `C[C@@H]1NC(=O)[C@H](CC(N)=O)NC(=O)[C@@H](Cc2ccccc2)NC(=O)[C@@H](Cc2ccccc2)NC(=O)[C@H](CCCNC(=N)N)NC(=O)[C@H](Cc2ccccc2)N(C)C(=O)[C@@H]2N[C@H](c3ccc(cc3)C(=O)NCCCC[C@@H](C(=O)N[C@@H](Cc3ccc(O)cc3)C(N)=O)NC1=O)[C@@H]1C(=O)N(C)C(=O)[C@@H]12` [G1-major, [I-FRffNAK ]Y], for which the IC50 on human MC5R, at human MC3R [3], at human MC1R [4] and at human MC4R [6] was above 10 µM each time. The results for the EC50 on human MC3R [1], at human MC1R [2] and at human MC4R [5] were above 10 µM, 1.8 ± 0.3 µM and above 10 µM, respectively. Moreover, the Emax on human MC1R [2] turned out to be 38%.

For `CN1C(=O)[C@H]2N[C@@H](c3ccc(cc3)C(=O)NCCCC[C@@H](C(=O)N[C@@H](Cc3ccc(O)cc3)C(N)=O)NC(=O)[C@H](Cc3ccccc3)NC(=O)[C@H](Cc3ccccc3)NC(=O)[C@H](CCCNC(=N)N)NC(=O)[C@@H]1Cc1ccccc1)[C@H]1C(=O)N(c3ccccc3)C(=O)[C@H]12` [N1-major*, [II-FRFFK ]Y], the IC50 on human MC5R, at human MC3R [3], on human MC1R [4] and on human MC4R [6] was above 10 µM in each case. In addition, the EC50 at human MC3R [1], on human MC1R [2] and at human MC4R [5] was above 10 µM each time. For the same molecule, at human MC1R [2] (% effect at 10 µM, compounds not reaching an upper plateau (#)), the “% Effect hMC1R cAMP at 10 µM” value is 33%.

For `CN1C(=O)[C@@H]2[C@H](C1=O)[C@H]1N[C@@H]2c2ccc(cc2)C(=O)NCCCC[C@@H](C(=O)N[C@@H](Cc2ccc(O)cc2)C(N)=O)NC(=O)[C@H](CC(N)=O)NC(=O)[C@H](Cc2ccccc2)NC(=O)[C@H](Cc2ccccc2)NC(=O)[C@H](CCCNC(=N)N)NC(=O)[C@H](Cc2ccccc2)N(C)C1=O` [J1-major, [ I-FRFFNK ]Y], the IC50 is 41 ± 9 µM at human MC5R, above 100 µM on human MC3R [3], above 100 µM at human MC1R [4] and above 100 µM on human MC4R [6]. Besides, the EC50 on human MC3R [1] was above 100 µM; at human MC1R [2] it was 17 ± 5 µM; at human MC4R [5] it was above 100 µM. Also, the Emax at human MC1R [2] was found to be 51%.

For the molecule `CN1C(=O)[C@@H]2N[C@H](c3ccc(cc3)C(=O)NCCCC[C@@H](C(=O)NCC(N)=O)NC(=O)[C@H](CC(N)=O)NC(=O)[C@H](Cc3ccccc3)NC(=O)[C@H](Cc3ccccc3)NC(=O)[C@H](CCCNC(=N)N)NC(=O)[C@@H]1Cc1ccccc1)[C@@H]1C(=O)N(c3ccccc3)C(=O)[C@@H]12` [J3-minor*, [ II-FRFFNK ]G], the IC50 on human MC5R was found to be 6.2 ± 0.5 µM; at human MC3R [3], 21 ± 1 µM; at human MC1R [4], 13 ± 1 µM; at human MC4R [6], 17 ± 2 µM. Also, the EC50 at human MC3R [1], at human MC1R [2] and on human MC4R [5] was above 100 µM in each case.

Regarding `C[C@@H]1NC(=O)[C@H](CC(N)=O)NC(=O)[C@H](Cc2ccccc2)NC(=O)[C@H](Cc2ccccc2)NC(=O)[C@H](CCCNC(=N)N)NC(=O)[C@H](Cc2ccccc2)N(C)C(=O)[C@H]2N[C@@H](c3ccc(cc3)C(=O)NCCCC[C@@H](C(=O)NCC(N)=O)NC(=O)[C@H](Cc3ccccc3)NC1=O)[C@H]1C(=O)N(c3ccccc3)C(=O)[C@H]12` [B3-major*, [ II-FRFFNAFK]G], the IC50 at human MC5R, at human MC3R [3], on human MC1R [4] and at human MC4R [6] was above 10 µM in each case. The EC50 at human MC3R [1], at human MC1R [2] and on human MC4R [5] was above 10 µM in each case.

On to `C[C@@H]1NC(=O)[C@H](CC(N)=O)NC(=O)[C@H](Cc2ccccc2)NC(=O)[C@H](Cc2ccccc2)NC(=O)[C@H](CCCNC(=N)N)NC(=O)[C@H](Cc2ccccc2)N(C)C(=O)[C@@H]2N[C@H](c3ccc(cc3)C(=O)NCCCC[C@@H](C(=O)N[C@@H](Cc3ccc(O)cc3)C(N)=O)NC(=O)[C@H](Cc3ccccc3)NC1=O)[C@@H]1C(=O)N(C)C(=O)[C@@H]12` [B1-major, [ I-FRFFNAFK ]Y], for which the IC50 on human MC5R amounted to 16 ± 2 µM; on human MC3R [3], 32 ± 2 µM; at human MC1R [4], 41 ± 2 µM; on human MC4R [6], 34 ± 3 µM. The values for the EC50 at human MC3R [1], on human MC1R [2] and on human MC4R [5] were above 100 µM, 1.8 ± 1.2 µM and above 100 µM, respectively. In addition, the Emax at human MC1R [2] is 37%.

Broadly, the IC50 is the concentration that inhibits the measured activity by half. As a reminder, the EC50 is the concentration at which the effect is half-maximal.
